# Laboratory results as given in patent US5432172A, “Biological applications of alkaloids derived from the tunicate Eudistoma sp” (The Research Foundation of State University of New York, priority 1993, dated 1995).
# Like-named read-outs stand apart in the source and are kept apart here.
# Columns and labels:
# [1] = system: neuroblastoma N1E-115 cells; assay: Growth and morphological differentiation of mouse neuroblastoma N1E-115 cells; details: for range of effective concentrations that inhibited cell proliferation and induced morphological differentiation / effects on cell appearance: N1E-115 cells; for range of effective concentrations that inhibited cell proliferation and induced morphological differentiation: below range no noticeable effect, above range cytotoxic; for effects on cell appearance: morphology; for most effective concentration for the cells tested: summary, cells tested in the present invention
# Procedure: A,B: Untreated cells, 3 (A) and 8 (B) days after subculture. C,D: Cells grown for 3 (C) and 8 (D) days with 12.8 μM Debromoshermilamine. E,F: Cells grown for 7 days with Isosegoline A (39 μM) and Norsegoline (16.3 μM), respectively.
# A,B: Untreated cells 3 (A) and 6 (B) days after subculture. C,D: Cells grown for 3 (C) and 6 (D) days with 50 μM forskolin. E,F: Cells grown for 3 (E) and 6 (F) days with 39 μM Segoline A. G,H: Cells grown for 3 (G) and 6 (H) days with 0.14 μM Eilatin.
# Cells were grown for six days in the absence of drugs (A), or in the presence of: 10 μM 4-methylpyrido[2,3,4-kl]acridine (B), 4 μM pyrido[2,3,4-kl]acridine (C), 0.08 μM Eilatin (D), 75 μM forskolin (E).
# The inventors chose the neuroblastoma N1E-115 cells because these tumor-derived cells can be induced to express characteristic neuronal properties by a variety of procedures see Spector, "Electrophysiology of clonal nerve cell lines. In: Excitable Cells in Tissue Culture", Nelson et al. eds., Plenum, New York 247-277 (1981) and can serve as a useful experimental system in which to explore the effects of the Eudistoma alkaloids on the biological properties of both cancer cells and neuronal cells.
# The N1E-115 cells were exposed to various concentrations of the six (6) natural products shown in FIG. 1, and of the two synthetic pyridoacridines shown in Scheme III of FIG. 2. […] A,B: Untreated cells, 3 (A) and 8 (B) days after subculture. C,D: Cells grown for 3 (C) and (8) days with 12.8 μM Debromoshermilamine. E,F: Cells grown for 7 days with Isosegoline A (39 μM) and Norsegoline (16.3 μM), respectively. FIG. 5 illustrates the appearance of N1E-115 cells 6 days after replating in the absence (A) and in the presence of 10 μM 4-methylpyrido[2,3,4-kl]acridine (B), or 4 μM pyrido[2,3,4-kl]acridine.
# [2] = system: pyruvate kinase; assay: Pyruvate kinase activity in cultured rat hepatoma FAO cells; format: cell-based; details: for Km: control 0.14, read-out: Km for the substrate phosphoenolpyruvate (PEP); for inhibition of pyruvate kinase activity: submaximal substrate concentrations; for rise in the Km for substrate (phosphoenolpyruvate): versus control
# Procedure: FIG. 11 is a graph showing the effects of the Eudistoma alkaloids on pyruvate kinase activity in cultured rat hepatoma FAO cells. Enzyme activity v/Vmax was assayed as described in Example IV in partially purified extracts from cells incubated for 1 h in the absence ( ) or presence of 100 μM CPT-cAMP (.cndot.) and 26 μM segoline A ( ) as a function of substrate concentrations (phosphoenolpyruvate, PEP).
# 1. Activity of pyruvate kinase--a key glycolytic enzyme whose activity is inhibited by cAMP-dependent phosphorylation.
# FIG. 11 is a graph showing the effects of the Eudistoma alkaloids on pyruvate kinase activity in cultured rat hepatoma FAO cells. Enzyme activity v/Vmax was assayed in partially purified extracts from cells incubated for 1 h in the absence (squares) or presence of 100 μM 8-(4-chlorophenylthio) cyclic AMP (CPT-cAMP)-CPT-cAMP (circles) and 26 μM Segoline A (triangles) as a function of substrate concentrations (phosphoenolpyruvate, PEP).
# [3] = system: PEPCK mRNA; assay: Levels of PEPCK mRNA in FTO-2B rat hepatoma cells (Northern blot); format: cell-based; details: segoline A 5, 26 and 52 μM; Debromoshermilamine 2.6, 12.8 and 38.4 μM; 4 hours
# Procedure: FIG. 12 is a graph showing the effects of Eudistoma alkaloids on levels of PEPCK mRNA in FTO-2B rat hepatoma cells. The cells were exposed for 4 hours to serum-free medium which contained: 5 μM CPT-cAMP (lane 1), 5, 26 and 52 μM segoline A (lanes 2-4), 2.6, 12.8 and 38.4 μM Debromoshermilamine (lanes 5-7) or to serum-free medium alone (lane 8).
# 2. Induction of mRNA for P-enolpyruvate carboxykinase (PEPCK)--a key enzyme in the gluconeogenesis pathway in liver and kidney cells whose gene transcription rate is stimulated by cAMP see Hod et al., N.Y. Acad. Sci., 478, 31-45 (1986) and Hod et an., J. Biol. Chem., 263, 7747-7752 (1988).
# FIG. 12 is a graph showing the effects of Eudistoma alkaloids on levels of PEPCK mRNA in FTO-2B rat hepatoma cells. The cells were exposed to medium which contained: 5 μM 8-CPT-cAMP, 5, 26 and 52 μM Segoline A, 2.6, 12.8 and 38.4 μM Debromoshermilamine or to control medium. The level of mRNA was determined by Northern blot analysis according to Hod et al., J. Biol. Chem., 259, 15603-15608 (1984) using the plasmid pPCK10rc as a hybridization probe, and quantified by densitometric scanning of the autoradiograms which is shown on the left.
# [4] = system: normal hamster fibroblast NIL8 cell line; assay: Growth and morphology of normal NIL8 fibroblast cells; format: cell-based; details: 12.8 μM Debromoshermilamine, 5 days, single application
# Procedure: Cells were grown for 5 days in the absence of drugs (A), and in the presence of 25 μM forskolin (B), 1.4 μM Eilatin (C), or 12.8 μM Debromoshermilamine (D). […]
# As illustrated, a single application of 1.4 μM Eilatin or 12.8 μM Debromoshermilamine to NIL8 cells produced effects which are strikingly similar to those obtained by chronically treating time cells with agents that elevate or mimic cAMP. […] This predilection towards cancer cells is a very desirable property in developing potential drugs for the treatment of cancer.
# [5] = system: rat anterior pituitary cells; assay: Secretion of growth hormone (GH) from dispersed rat anterior pituitary cells; format: cell-based; details: 3 h; increasing concentrations
# Description: FIG. 13 is a graph showing the effects of Debromoshermilamine on the secretion of growth hormone (GH) from dispersed rat anterior pituitary cells. Each bar represents the mean ±s.e.m of four wells.
# 3. Growth hormone release from anterior pituitary cells which is stimulated by a number of hormonal factors that activate the adenylyl cyclase system and elevate cellular cAMP levels, see, Bilezikjian et al., Endocrinology, 113, 1726-1731 (1983); Ray et al., Mol. Cell. Endocrinology, 45, 175-182 (1986) and Gabriel et al., Neuroendocrinology, 50 170-176 (1989).
# FIG. 13 is a graph showing the effects of debromoshermilamine on the secretion of growth hormone (GH) from dispersed rat anterior pituitary cells. Cells grown in 24-well multiwell plates were incubated for 3 h in fresh medium (DME) in the absence (control) or presence of 1 mM DbcAMP, and increasing concentrations of Debromoshermilamine as indicated. Hormone secretion was measured using rat GH radioimmunoassay. Each bar represents the mean ±s.e.m of four wells.
smiles,measurement,setting,value
COc1cc2c3c4c(ccnc14)-c1ccccc1N3C1(C)C(=O)NC(=O)C2C1C (stereo not shown) [Segoline A],effect on cell division and morphological differentiation,"[1]; 39 μM Segoline A, 3 days, single application",inhibited cell division and induced morphological differentiation
same,long-term effect on cell division,"[1]; 39 μM Segoline A, 6 days, single application",cell division is completely blocked
same,range of effective concentrations that inhibited cell proliferation and induced morphological differentiation,[1],12-52 μM
same,effects on cell appearance,[1],flattened cell bodies as well as numerous long neurites
same,most effective concentration for the cells tested,[1],12 to 52 µM
same,Km,"[2]; 26 μM segoline A, 1 h",440 µM
same,inhibition of pyruvate kinase activity,[2],inhibit pyruvate kinase activity
same,rise in the Km for substrate (phosphoenolpyruvate),[2],ca. 3 fold
same,induction of PEPCK mRNA,[3],stimulate the induction of PEPCK mRNA in a dose-dependent manner
CC(=O)NCCc1c2c(c3nccc4c3c1Nc1ccccc1-4)NC(=O)CS2 [Debromoshermilamine],range of effective concentrations that inhibited cell proliferation and induced morphological differentiation,[1],6-32 μM
same,effects on cell appearance,[1],a large proportion of very flat cells of considerable size and relatively few neurites
same,most effective concentration for the cells tested,[1],6 to 32 µM
same,effect on cell shape of NIL8 cells,[4],flatter
same,effect on growth of NIL8 cells,[4],growth was inhibited
same,Km,[2]; concentration of alkaloid not given,460 µM
same,inhibition of pyruvate kinase activity,[2],inhibit pyruvate kinase activity
same,rise in the Km for substrate (phosphoenolpyruvate),[2],ca. 3 fold
same,induction of PEPCK mRNA,[3],stimulate the induction of PEPCK mRNA in a dose-dependent manner
same,growth hormone release,[5],"stimulate growth hormone release, again, in a dose-dependent manner"
